Laboratory results from patent US12415830B2, “Steroid compound, and use thereof and preparation method therefor” (Chengdu Kanghong Pharmaceutical Co Ltd, priority 2019, dated 2025).

Molecular target: T1, GABAA1 (α1β2γ2) receptor (Homo sapiens, UniProt P14867+P47870)
T1 construct: expressed in transfected cells
Experiment: Patch-clamp electrophysiology on recombinant GABAA1 receptor in HEK293 cells, with 3 μM GABA
Assay type: cell-based
Conditions: for Emax at 0.1 µM / Emax at 1 µM / Emax: HEK293; for Emax at 0.1 µM: 0.1 μM compound together with 3 μmol GABA; for Emax at 0.1 µM / Emax at 1 µM: read-out: potency: ratio of the peak current on the GABAA1 receptor to the peak current in 100 μmol GABA; for Emax at 1 µM: 1 μM compound together with 3 μmol GABA; for Emax / EC50: together with 3 μmol GABA; for Emax: relative to peak current in 100 μmol GABA
Procedure: The present invention applies the two subunits of the recombinant GABAA receptor: α1β2γ2 and α4β3δ to evaluate the potency of the exemplary compounds in vitro by patch-clamp electrophysiology.
Extracellular fluid: 140 mM NaCl, 5 mM CsCl, 2 mM CaCl2·2H2O, 1 mM MgCl2·6H2O, 5 mM HEPES, 10 mM D-Glucose, pH=7.4 (NaOH).
Intracellular fluid: 130 mM CsCl, 0.1 mM CaCl2·H2O, 2 mM MgCl2·6H2O, 1.1 mM EGTA, 5 mM Na2-ATP, 10 mM HEPES, pH=7.2 (CsOH).
The HEK293 cells line stably expressing GABAA (α1β2γ2) receptors was cultured in Dulbecco's Modified Eagle Medium (DMEM) supplemented with 10% fetal bovine serum, 800 μg/mL G418, 200 μg/mL Hygromycin B and 100 μg/mL Zeocin. Cells were grown in a humidified incubator at 37° C. with 5% carbon dioxide.
Before manual patch clamp test, the cells were detached using 0.25%-Trypsin-EDTA solution. Then 8×10^3 cells were plated onto coverslips, and cultured in a 24-well plate (final medium volume: 500 μL) and tested after 18 hours by patch clamp.
Glass pipette (BF 150-86-10, Sutter Instruments) was pulled using a micropipette puller (P97, Sutter Instruments). The glass pipette was manipulated using a micro-manipulator (MP285, Sutter Instruments) under the microscope (IX71, Olympus). After touching the cell, a slight suction was applied to achieve high seal resistance (GQ). Fast capacitance (in pF) compensation was made after achieving high seal, and the membrane was broken. Cell capacitance (in pF) compensation was made from whole-cell capacitance compensation after the whole cell mode was achieved. No leak subtraction was made.
The test and control solutions flowed into a recording chamber mounted on the stage of an inverted microscope via a gravity-fed solution delivery system. During the experiment, solutions were withdrawn from the recording chamber by vacuum aspiration. Each concentration was tested at multiple times. All tests were performed at room temperature.
Whole cell model recorded GABAA1 receptors current experimental protocol was indicated as follows: When sealing, cell was at a holding potential of −70 mV, with gap-free mode to record the peak current. The cell would be applied with 3 μM GABA to active current. After the test articles application for 30 s, each concentration of test articles was applied with 3 μM GABA followed by 2 minutes washout using extracellular solution. Finally, 100 μM GABA was used as a positive control. The data were collected by EPC-10 amplifier and stored in PatchMaster (HEKA) software.
The following criteria are used to determine whether the data is acceptable: • (1) Electrode resistance <5MΩ • (2) Seal resistance >1GΩ • (3) The start of access resistance <15 MΩ • (4) The end of access resistance <15 MΩ • (5) No obvious spontaneous current decay. • (6) No obvious current leakage when the membrane potential is-70 mv. 56.6 Data Analysis
In the detection of GABAA1, the currents of 3 μM GABA and different concentrations of test compounds were respectively normalized to the current of 100 μM GABA
[formula] and then the activation rate corresponding to each concentration was calculated.
[formula] and then the activation rate corresponding to each concentration was calculated. Means, Standard Deviation and Standard Error were calculated for each test group. EC50 value was calculated using nonlinear regression: Y=Bottom+(Top−Bottom)/(1+10^((Log EC50−X)×HillSlope))
To fit data to the concentration-response, EC50 was the concentration giving a half-maximum effect and Hillslope was the Hill coefficient. Curve-fitting and EC50 calculations were performed using Graphpad5.0 software.
Emax is defined as the ratio of the peak current generated on the GABAA1 receptor to the peak current generated only in 100 μmol of GABA and the ratio is multiplied by 100%. The peak current generated on the GABAA1 receptor is that the exemplary compounds act on the GABAA1 receptor together with 3 μmol GABA.

T1 sequence (P14867 28-456): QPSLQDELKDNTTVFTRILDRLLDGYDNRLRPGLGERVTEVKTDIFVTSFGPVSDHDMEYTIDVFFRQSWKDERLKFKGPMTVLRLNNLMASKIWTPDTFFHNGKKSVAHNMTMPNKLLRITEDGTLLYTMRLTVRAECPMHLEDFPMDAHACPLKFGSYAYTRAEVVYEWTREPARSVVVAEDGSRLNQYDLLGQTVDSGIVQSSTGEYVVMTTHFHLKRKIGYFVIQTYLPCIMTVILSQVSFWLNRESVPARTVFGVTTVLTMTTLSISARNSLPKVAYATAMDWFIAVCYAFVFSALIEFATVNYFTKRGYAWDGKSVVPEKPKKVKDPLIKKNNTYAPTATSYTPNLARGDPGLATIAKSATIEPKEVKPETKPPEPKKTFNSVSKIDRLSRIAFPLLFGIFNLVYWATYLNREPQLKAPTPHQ
T1 sequence (P47870 26-512): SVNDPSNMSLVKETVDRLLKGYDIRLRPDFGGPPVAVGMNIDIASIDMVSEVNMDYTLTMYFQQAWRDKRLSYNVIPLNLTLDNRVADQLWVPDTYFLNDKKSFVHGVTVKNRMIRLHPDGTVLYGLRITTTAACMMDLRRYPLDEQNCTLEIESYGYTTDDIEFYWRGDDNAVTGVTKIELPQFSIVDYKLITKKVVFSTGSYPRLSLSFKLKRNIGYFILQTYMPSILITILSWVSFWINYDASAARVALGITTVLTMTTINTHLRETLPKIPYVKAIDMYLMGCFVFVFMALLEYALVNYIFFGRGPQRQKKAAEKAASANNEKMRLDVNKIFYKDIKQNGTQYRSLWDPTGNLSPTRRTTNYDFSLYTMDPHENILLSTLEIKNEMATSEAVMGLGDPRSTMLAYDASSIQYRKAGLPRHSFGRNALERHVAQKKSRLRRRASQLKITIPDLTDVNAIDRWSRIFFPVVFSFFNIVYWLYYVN
T1 sequence (P18507 40-475 partner): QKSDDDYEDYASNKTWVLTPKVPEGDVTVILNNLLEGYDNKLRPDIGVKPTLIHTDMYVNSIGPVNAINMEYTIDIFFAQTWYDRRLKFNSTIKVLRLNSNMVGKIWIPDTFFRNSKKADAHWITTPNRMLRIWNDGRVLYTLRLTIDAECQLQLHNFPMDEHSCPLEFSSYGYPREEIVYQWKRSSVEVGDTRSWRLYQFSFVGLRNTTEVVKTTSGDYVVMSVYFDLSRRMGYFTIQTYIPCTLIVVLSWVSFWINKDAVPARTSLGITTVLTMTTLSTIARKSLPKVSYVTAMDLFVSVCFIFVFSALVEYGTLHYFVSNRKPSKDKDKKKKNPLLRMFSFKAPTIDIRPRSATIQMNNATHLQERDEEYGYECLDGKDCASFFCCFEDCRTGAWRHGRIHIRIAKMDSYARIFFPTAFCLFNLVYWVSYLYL

Compound | Emax at 0.1 µM | Emax at 1 µM | Emax | EC50
C[C@]12CC[C@@H](O)C[C@@H]1CC[C@@H]1[C@@H]2CC[C@]2(C)[C@@H](C(=O)Cn3cc(C#N)cn3)CCC[C@@H]12 [KH002] | 0 to 20% | 60 to 80% | 74.6% | 464 nM
C[C@]12CC[C@@H](O)C[C@@H]1CC[C@@H]1[C@@H]2CC[C@]2(C)[C@@H](C(=O)Cn3ccnn3)CCC[C@@H]12 [KH003] | 20 to 40% | 60 to 80% | 72.8% | 478 nM
C[C@]12CC[C@@H](O)C[C@@H]1CC[C@@H]1[C@@H]2CC[C@]2(C)[C@@H](C(=O)Cn3cnnn3)CCC[C@@H]12 [KH005] | 20 to 40% | 60 to 80% |  | 
C[C@]12CC[C@@H](O)C[C@@H]1CC[C@@H]1[C@@H]2CC[C@]2(C)[C@@H](C(=O)Cn3cccn3)CCC[C@@H]12 [KH006] | 20 to 40% | 40 to 60% |  | 
C[C@]12CC[C@@H](O)C[C@@H]1CC[C@@H]1[C@@H]2CC[C@]2(C)[C@@H](C(=O)Cn3ccnc3)CCC[C@@H]12 [KH007] | 0 to 20% | 40 to 60% |  | 
C[C@]12CC[C@@H](O)C[C@@H]1CC[C@@H]1[C@@H]2CC[C@]2(C)[C@@H](C(=O)Cn3ccc(C#N)n3)CCC[C@@H]12 [KH008] | 20 to 40% | > 80% |  | 
C[C@]12CC[C@@H](O)C[C@@H]1CC[C@@H]1[C@@H]2CC[C@]2(C)[C@@H](C(=O)Cn3ccc4ccccc43)CCC[C@@H]12 [KH009] | 20 to 40% | > 80% |  | 
C[C@]12CC[C@@H](O)C[C@@H]1CC[C@@H]1[C@@H]2CC[C@]2(C)[C@@H](C(=O)Cn3cc(C(F)(F)F)cn3)CCC[C@@H]12 [KH010] | 0 to 20% | 20 to 40% |  | 
C[C@]12CC[C@@H](O)C[C@@H]1CC[C@@H]1[C@@H]2CC[C@]2(C)[C@@H](C(=O)Cn3ncc4ccccc43)CCC[C@@H]12 [KH011] | 20 to 40% | 60 to 80% |  | 
C[C@]12CC[C@@H](O)C[C@@H]1CC[C@@H]1[C@@H]2CC[C@]2(C)[C@@H](C(=O)Cn3cnc4cncnc43)CCC[C@@H]12 [KH012] | 0 to 20% | 60 to 80% |  | 
C[C@]12CC[C@@H](O)C[C@@H]1CC[C@@H]1[C@@H]2CC[C@]2(C)[C@@H](C(=O)Cn3cc(Cl)cn3)CCC[C@@H]12 [KH013] | 0 to 20% | 0 to 20% |  | 
C[C@]12CC[C@@H](O)C[C@@H]1CC[C@@H]1[C@@H]2CC[C@]2(C)[C@@H](C(=O)CO)CCC[C@@H]12 [KH014] | 0 to 20% | 40 to 60% |  | 
C[C@]12CC[C@@H](O)C[C@@H]1CC[C@@H]1[C@@H]2CC[C@]2(C)[C@@H](C(=O)Cn3cnc4ncnc(Cl)c43)CCC[C@@H]12 [KH015] | 0 to 20% | 0 to 20% |  | 
C[C@]12CC[C@@H](O)C[C@@H]1CC[C@@H]1[C@@H]2CC[C@]2(C)[C@@H](C(=O)CSc3cccs3)CCC[C@@H]12 [KH016] | 0 to 20% | 40 to 60% |  | 
COc1ncnc2ncn(CC(=O)[C@H]3CCC[C@H]4[C@@H]5CC[C@H]6C[C@H](O)CC[C@]6(C)[C@H]5CC[C@]34C)c12 [KH017] | 0 to 20% | 0 to 20% |  | 
Cc1nnn(CC(=O)[C@H]2CCC[C@H]3[C@@H]4CC[C@H]5C[C@H](O)CC[C@]5(C)[C@H]4CC[C@]23C)n1 [KH018] | 0 to 20% | 20 to 40% |  | 
Cc1nnnn1CC(=O)[C@H]1CCC[C@H]2[C@@H]3CC[C@H]4C[C@H](O)CC[C@]4(C)[C@H]3CC[C@]12C [KH019] | 0 to 20% | 0 to 20% |  | 
C[C@]12CC[C@@H](O)C[C@@H]1CC[C@@H]1[C@@H]2CC[C@]2(C)[C@@H](C(=O)CN3CC4(COC4)C3)CCC[C@@H]12 [KH020] | 0 to 20% | 0 to 20% |  | 

Compound | Emax at 0.1 µM | Emax at 1 µM | Emax | EC50
CC(=O)[C@H]1CCC[C@H]2[C@@H]3CC[C@H]4C[C@](C)(O)CC[C@]4(C)[C@H]3CC[C@]12C [KH021] | 0 to 20% | 0 to 20% |  | 
C[C@@]1(O)CC[C@@]2(C)[C@@H](CC[C@@H]3[C@@H]2CC[C@]2(C)[C@@H](C(=O)Cn4cnnn4)CCC[C@@H]32)C1 [KH023] | 0 to 20% | 0 to 20% |  | 
C[C@@]1(O)CC[C@@]2(C)[C@@H](CC[C@@H]3[C@@H]2CC[C@]2(C)[C@@H](C(=O)Cn4ccc(C#N)n4)CCC[C@@H]32)C1 [KH024] | 0 to 20% | 40 to 60% |  | 
C[C@@]1(O)CC[C@@]2(C)[C@@H](CC[C@@H]3[C@@H]2CC[C@]2(C)[C@@H](C(=O)C(n4cc(C#N)cn4)n4cc(C#N)cn4)CCC[C@@H]32)C1 [KH027] | 0 to 20% | 0 to 20% |  | 
C[C@@]1(O)CC[C@@]2(C)[C@@H](CC[C@@H]3[C@@H]2CC[C@]2(C)[C@@H](C(=O)COc4nc5ccccc5o4)CCC[C@@H]32)C1 [KH028] | 0 to 20% | 0 to 20% |  | 
Cc1cccc2c(OCC(=O)[C@H]3CCC[C@H]4[C@@H]5CC[C@H]6C[C@](C)(O)CC[C@]6(C)[C@H]5CC[C@]34C)ncnc12 [KH029] | 0 to 20% | 0 to 20% |  | 
COc1nnc(OCC(=O)[C@H]2CCC[C@H]3[C@@H]4CC[C@H]5C[C@](C)(O)CC[C@]5(C)[C@H]4CC[C@]23C)n1C [KH030] | 0 to 20% | 0 to 20% |  | 
Cn1nnnc1SCC(=O)[C@H]1CCC[C@H]2[C@@H]3CC[C@H]4C[C@](C)(O)CC[C@]4(C)[C@H]3CC[C@]12C [KH031] | 0 to 20% | 40 to 60% |  | 
C[C@@]1(O)CC[C@@]2(C)[C@@H](CC[C@@H]3[C@@H]2CC[C@]2(C)[C@@H](C(=O)COc4ccc5ccccc5n4)CCC[C@@H]32)C1 [KH033] | 0 to 20% | 20 to 40% |  | 
C[C@@]1(O)CC[C@@]2(C)[C@@H](CC[C@@H]3[C@@H]2CC[C@]2(C)[C@@H](C(=O)COc4nc[nH]n4)CCC[C@@H]32)C1 [KH034] | 0 to 20% | 0 to 20% |  | 
C[C@@]1(O)CC[C@@]2(C)[C@@H](CC[C@@H]3[C@@H]2CC[C@]2(C)[C@@H](C(=O)COc4ncnc5c(F)cccc45)CCC[C@@H]32)C1 [KH035] | 0 to 20% | 20 to 40% |  | 
C[C@@]1(O)CC[C@@]2(C)[C@@H](CC[C@@H]3[C@@H]2CC[C@]2(C)[C@@H](C(=O)COc4ncnc5cnc(F)cc45)CCC[C@@H]32)C1 [KH036] | 0 to 20% | 0 to 20% |  | 
Cn1cnnc1SCC(=O)[C@H]1CCC[C@H]2[C@@H]3CC[C@H]4C[C@](C)(O)CC[C@]4(C)[C@H]3CC[C@]12C [KH037] | 0 to 20% | 0 to 20% |  | 
C[C@@]1(O)CC[C@@]2(C)[C@@H](CC[C@@H]3[C@@H]2CC[C@]2(C)[C@@H](C(=O)COc4ccon4)CCC[C@@H]32)C1 [KH038] | 0 to 20% | 40 to 60% |  | 
C[C@@]1(O)CC[C@@]2(C)[C@@H](CC[C@@H]3[C@@H]2CC[C@]2(C)[C@@H](C(=O)Cn4cc(C#N)cn4)CCC[C@@H]32)C1 [KH040] | 0 to 20% | 20 to 40% |  | 
C[C@@]1(O)CC[C@@]2(C)[C@@H](CC[C@@H]3[C@@H]2CC[C@]2(C)[C@@H](C(=O)CSc4cccs4)CCC[C@@H]32)C1 [KH041] | 0 to 20% | 60 to 80% |  | 
C[C@@]1(O)CC[C@@]2(C)[C@@H](CC[C@@H]3[C@@H]2CC[C@]2(C)[C@@H](C(=O)CO)CCC[C@@H]32)C1 [KH042] | 0 to 20% | 40 to 60% |  | 
